One assay has as its target SARS-CoV-2 PLpro (Severe acute respiratory syndrome coronavirus 2, UniProt P0DTD1). Nature of the assay: biochemical.
Another assay deals with SARS-CoV-2 virus. The settings on record: read-out: IC50, in-vitro antiviral activity against the SARS-CoV-2 virus; cited from earlier work.

SMILES strings stand for the structures. Where two headings read alike, the source gives them in different places. Numbered stars: 1 amine (or outer) side, 2 acyl side, 3 side chain; on linkers, the order of the positions; unused ones are H or OH. Bridge positions count the residues as written; N and C are the ends. Square brackets hold non-standard residues; d marks the D form. Peptide text beside a SMILES is read from it. * marks the point of attachment. pTerphenylCO(4''-OnC5H11) = CCCCCOc1ccc(-c2ccc(-c3ccc(C(=O)*)cc3)cc2)cc1; Orn(4R-OH,5R-OH) = O=C([C@H](C[C@@H](O)[C@@H](O)N[*:3])N[*:1])[*:2]; hTyr(3S-OH,4S-OH) = N[C@H](C(=O)O)[C@H](O)[C@@H](O)c1ccc(O)cc1; Pro(3S-OH,4S-Me) = C[C@H]1CN[C@H](C(=O)O)[C@H]1O; Hyp = O=C(O)[C@@H]1C[C@@H](O)CN1

With `Cc1cc2nc3c(=O)[nH]c(=O)nc-3n(C[C@H](O)[C@H](O)[C@H](O)COP(=O)(O)OP(=O)(O)OC[C@H]3O[C@@H](n4cnc5c(N)ncnc54)[C@H](O)[C@@H]3O)c2cc1C` [FAD disodium], the IC50 on SARS-CoV-2 PLpro (read-out: IC50 against SARS-CoV-2 PLpro) was 12.4 µM.
As to `CO[C@H]1/C=C/O[C@@]2(C)Oc3c(C)c(O)c4c(O)c(c(/C=N/N5CCN(C6CCCC6)CC5)c(O)c4c3C2=O)NC(=O)/C(C)=C\C=C\[C@H](C)[C@H](O)[C@@H](C)[C@@H](O)[C@@H](C)[C@H](OC(C)=O)[C@@H]1C` [Rifapentine], at SARS-CoV-2 PLpro, half-maximal inhibition (IC50) was put at 15.2 µM.
On the same count and under the same terms, then `CC(C)(C)[C@@H]1NC(=O)O[C@@H]2CCC[C@H]2OC/C=C/C(F)(F)c2nc3ccccc3nc2O[C@@H]2C[C@@H](C(=O)N[C@]3(C(=O)NS(=O)(=O)C4(C)CC4)C[C@H]3C(F)F)N(C2)C1=O` [Glecaprevir], with 36.8 µM.
As for `CCCCCOc1ccc(-c2ccc(-c3ccc(C(=O)N[C@H]4C[C@@H](O)[C@@H](O)NC(=O)[C@@H]5[C@@H](O)[C@@H](C)CN5C(=O)[C@H]([C@@H](C)O)NC(=O)[C@H]([C@H](O)[C@@H](O)c5ccc(O)cc5)NC(=O)[C@@H]5C[C@@H](O)CN5C(=O)[C@H]([C@@H](C)O)NC4=O)cc3)cc2)cc1` [Anidulafungin] ({pTerphenylCO(4''-OnC5H11)}-[Orn(4R-OH,5R-OH)]T[Hyp][hTyr(3S-OH,4S-OH)]T[Pro(3S-OH,4S-Me)]; lactam 1-C), the “inhibitory activity against PLpro (in words)” value at SARS-CoV-2 PLpro (Ubiquitin-Rhodamine 110 Gly fluorescence intensity assay) was “low inhibitory activity”. For the same molecule, the IC50 in the assay with SARS-CoV-2 virus is 4.64 µM.

Usually IC50 stands for the point on the concentration scale where inhibition reaches its midpoint.

(Values after publication PMC8604796 (Computers in Biology and Medicine, 2021).)
